Data set [1] in a line: Solubility of 4′-epidaunorubicin hydrochloride (stated in words, no method given). It counts as physicochemical.
Data set [2] in a line: Thermal stability / decomposition of 4′-epidaunorubicin hydrochloride crystals (thermogravimetric analysis). It counts as physicochemical. The settings on record: for temperature at which the product decomposed: crystals obtained in the example. The source says:
FIG. 2 is a graph showing the thermogravimetric analysis (TGA) of 4′-epidaunorubicin hydrochloride. The data were obtained using the instrument NETZSCH TG 209 (sample mass: […], range: 24.0/10.0 (K/min)/250.0, crucible: Al2O3).

On to `COc1cccc2c1C(=O)c1c(O)c3c(c(O)c1C2=O)C[C@@](O)(C(C)=O)C[C@@H]3O[C@H]1C[C@H](N)[C@@H](O)[C@H](C)O1.Cl` [4′-epidaunorubicin hydrochloride], for which, in data set [1] (amorphous precipitate, solvent not stated), the “solubility of amorphously precipitated material” value is on record as “only purely soluble”. Moreover, the solubility in methanol result in data set [1] (methanol, crystalline form versus amorphous form, hydrochloride) is “improved solubility in methanol”. Besides, the thermal stability entry in data set [2] (crystalline form) was “high thermal stability”. In addition, the “temperature at which the product decomposed” value in data set [2] (listed as Example 1, hydrochloride) was 191 °C; in data set [2] (listed as Example 2, hydrochloride), 191 °C; in data set [2] (listed as Example 3, hydrochloride), 190 °C; in data set [2] (listed as Example 4, hydrochloride) it was 190 °C.

These data come from patent US9434756B2, “Crystalline 4′-epidaunorubicin hydrochloride and use thereof” (Heraeus Precious Metals GmbH & Co. KG, priority 2009, dated 2016).
